According to PMC6268528, “3-Phenylcoumarins as Inhibitors of HIV-1 Replication” (Molecules, 2012):
Where two headings read alike, the source gives them in different places.

How the values were obtained:
HIV-1 = assay: Recombinant virus (RV) assay, luciferase reporter virus on MT-2 cells; type: cell-based; settings: for fold lesser potent than 11 in the RV assay: relative to compound 11; for rank as inhibitor of HIV replication, in words: RV assay
Method: We have synthesized fourteen 3-phenylcoumarin derivatives and evaluated their anti-HIV activity. Antiviral activity was assessed on MT-2 cells infected with viral clones carrying the luciferase gene as reporter. Inhibition of HIV transcription and Tat function were tested on cells stably transfected with the HIV-LTR and Tat protein. […] The antiviral effect of the 4-hydroxycoumarin derivative 19 correlates with its specific inhibition of Tat functions, while compound 8, 3-(2-chlorophenyl)coumarin, seems to act through a mechanism unrelated to the molecular targets considered in this research.
(§1) In the characterization of anti-HIV activity, the effect of these coumarins on Tat and NF-κB functions has been evaluated in a similar manner as we described in a previous publication. We have used two transfected 5.1 cell lines, in which we measured NF-κB activation induced by TNFα [42] and HeLa-Tat-Luc cells, in which the HIV-1 LTR is directly activated by the HIV-1 Tat protein. Most of the compounds were submitted for further evaluation through a HeLa-Tet-ON assay in order to determine the selectivity of their action. To avoid missing compounds acting through another mechanism, all substances were also evaluated using a recombinant virus (RV) assay. In this system, a luciferase reporter gene was cloned in full-length infectious DNA. As a result, the measured luciferase activity is therefore proportional to viral replication.
(§2) The anti-HIV activity of these coumarins on Tat and NF-κB functions has been analysed. To this aim, we have used two stably transfected cell lines. The previously described 5.1 cell line is a Jurkat-derived clone stably transfected with a plasmid containing the luciferase gene under the control of HIV-LTR. In this cell clone, activation with TNFα induces NF-κB activation and subsequent HIV-1 expression. We have also analyzed the anti-HIV activity in HeLa-Tat-Luc cells, in which the HIV-1 LTR is directly activated by the HIV-1 Tat protein. A compound was considered active in one assay if it inhibited the target function by more than 50% (NF-κB) or 30% (Tat) at either 25 or 50 μM concentration. The active compounds were submitted for further evaluation through a HeLa-Tet-ON assay, as previously described. In the Hela-Tet-ON cells the luciferase expression is under control of an artificial promoter that can be activated by tetracycline. Therefore, compounds that inhibit tetracycline-induced luciferase activity were considered non-specific for luciferase-based anti-HIV assays and were not examined further, and those showing specific activity (non-inhibitors in HeLa-Tet-ON cells) were analysed using a recombinant virus (RV) assay. […] In this system, a luciferase reporter gene has been cloned in full-length infectious DNA. The measured luciferase activity is therefore directly proportional to the replication of the virus. This assay is more sensitive and reliable than classic infectious assays. Cell viability was evaluated in non-infected treated cultures following the same protocol as in the recombinant virus assay and measuring cell toxicity with a classical MTT assay. IC50 and CC50 were calculated using GraphPad Prism software [non-linear regression, log (inhibitor) vs. response].

HIV-1 Tat protein = assay: HeLa-Tat-Luc cells, HIV-1 LTR activated by Tat; type: cell-based; settings: for anti-Tat activity and specificity, in words: HeLa-Tat-Luc and Hela-Tet-ON assays; for inhibition at 25 µM: Human immunodeficiency virus 1, read-out: Antiviral activity Hela-Tat-luc 25 µM (inhibition of Tat function); for inhibition at 50 µM: Human immunodeficiency virus 1, read-out: Antiviral activity Hela-Tat-luc 50 µM (inhibition of Tat function)
Excerpt: as §1, §2

NF-κB = assay: 5.1 cell line + TNFα, HIV-LTR luciferase (NF-κB activation); type: cell-based; settings: for inhibition at 25 µM: read-out: Antiviral activity 5.1 + TNFα 25 µM (inhibition of NF-κB function); for inhibition at 50 µM: read-out: Antiviral activity 5.1 + TNFα 50 µM (inhibition of NF-κB function); for specificity of NF-κB inhibition, in words: with HeLa-Tet-ON evaluation
Excerpt: as §1, §2

[1] = tested on: tetracycline-induced luciferase activity in HeLa-Tet-ON cells; assay: HeLa-Tet-ON specificity assay; type: cell-based; design: key: S: specific; U: unspecific modes of action
Excerpt: as §1, §2

non-infected MT-2 cells = assay: Cell viability, MTT assay in non-infected treated cultures; type: cell-based; design: Toxicity (%) CC50: unit not given here
Excerpt: as §2

[2] = Human immunodeficiency virus 1, MT2, read-out: RV (VIH) IC50

Structure (SMILES) | IC50 (HIV-1; [2]) [µM] | fold lesser potent than 11 in the RV assay (HIV-1) | anti-Tat activity and specificity, in words (HIV-1 Tat protein) | inhibition at 25 µM (HIV-1 Tat protein) [%] | inhibition at 50 µM (HIV-1 Tat protein) [%] | inhibitory activity in the NF-κB test, in words (NF-κB; 25 μM) | inhibitory activity in the NF-κB test, in words (NF-κB; 50 µM) | inhibition at 25 µM (NF-κB) [%] | inhibition at 50 µM (NF-κB) [%] | HeLa-Tet-ON 50 µM (specific / unspecific mode of action) [1] | Toxicity (%) CC50 (non-infected MT-2 cells; MTT, non-infected cultures) | specificity of NF-κB inhibition, in words (NF-κB) | melting point [°C] | inhibition at 50 µM (NF-κB; 50 µM, 5.1 Jurkat-derived cells, TNFα) [%] | Toxicity (%) CC50 (non-infected MT-2 cells; human) | IC50 (HIV-1; recombinant virus, luciferase, read-out: RV (VIH) IC50) [µM] | CC50 (non-infected MT-2 cells; comparison drug, read-out: Toxicity CC50) [nM] | rank as inhibitor of HIV replication, in words (HIV-1)
COc1ccc(-c2cc3cccc(O)c3oc2=O)cc1 [Compound 17, 8-Hydroxy-3-(4-methoxyphenyl)-2H-chromen-2-one] | 84.6 ± 12.1 | 4-5 fold | potent though unspecific anti-Tat activity | 85.7 ± 3.4 | 88.3 ± 5.5 | confirmed | fair inhibitory activity | 82.2 ± 3.1 | 87.8 ± 9.8 | U | >50 |  |  |  |  |  |  | 
O=c1oc2ccccc2cc1-c1ccc2c(c1)OCO2 [Compound 13, 3-(Benzo[d][1,3]dioxol-5-yl)-2H-chromen-2-one] | 138 ± 22.3 |  |  | 32.8 ± 4.3 | 39.5 ± 2.3 |  | fair inhibitory activity |  | 68.5 ± 3.4 | S | 16.7 ± 3.4 | specific inhibitors of the NF-κB function | 168 to 170 |  |  |  |  | 
O=c1oc2ccccc2cc1-c1ccccc1 [Compound 7, 3-Phenyl-2H-chromen-2-one] | 130 ± 11.4 |  |  | 26.8 ± 2.9 | 33.7 ± 1 |  |  |  | 21.7 ± 3 | S | >50 |  |  |  |  |  |  | 
O=c1oc2ccccc2cc1-c1ccc(Cl)cc1 [Compound 9, 3-(4-Chlorophenyl)-2H-chromen-2-one] | > 195 |  |  |  | -4.9 ± 0.8 |  |  |  | 33 ± 2.33 |  | >50 |  | 190 to 192 |  |  |  |  | 
COc1ccc2c(O)c(-c3ccccc3)c(=O)oc2c1 [Compound 19, 4-Hydroxy-7-methoxy-3-phenyl-2H-chromen-2-one] | 23.8 ± 1.7 |  | modest, but specific inhibition | 48.9 ± 3.4 | 55.7 ± 4.9 |  |  | -34.3 ± 5 | -4.7 ± 0.3 | S | >50 |  | 217 to 219 |  |  |  |  | 
COc1ccc(-c2cc3ccccc3oc2=O)cc1OC [Compound 14, 3-(3,4-Dimethoxyphenyl)-2H-chromen-2-one] | > 177 |  |  |  | -25.1 ± 5.3 |  |  |  | -23 ± 2.9 |  | >50 |  | 127 to 129 |  |  |  |  | 
COc1ccc2oc(=O)c(-c3ccccc3)c(O)c2c1 [Compound 18, 4-Hydroxy-6-methoxy-3-phenyl-2H-chromen-2-one] | 186 ± 10.8 |  |  |  | 22.8 ± 3.4 |  |  |  |  | S |  |  |  | -3.5 ± 0.9 | >50 |  |  | 
O=c1oc2ccccc2cc1-c1ccc(Cl)cc1Cl [Compound 12, 3-(2,4-Dichlorophenyl)-2H-chromen-2-one] | > 172 |  |  |  | 14.1 ± 0.6 |  |  |  | -40.9 ± 2.3 | S | >50 |  | 226 to 228 |  |  |  |  | 
Cc1cn([C@H]2C[C@H](N=[N+]=[N-])[C@@H](CO)O2)c(=O)[nH]c1=O [AZT, reference compound] |  |  |  |  |  |  |  |  |  |  |  |  |  |  |  | 0.01 | > 1000 | 
COc1ccc2c(Cl)c(-c3ccccc3)c(=O)oc2c1 [Compound 20, 4-Chloro-7-methoxy-3-phenyl-2H-chromen-2-one] | > 209 |  |  |  | -64.4 ± 10 |  |  |  | -21.2 ± 7 |  | 18.4 ± 8.2 |  |  |  |  |  |  | 
O=c1oc2ccccc2cc1-c1ccccc1Cl [Compound 8, 3-(2-Chlorophenyl)-2H-chromen-2-one] | 20.7 ± 1.9 |  |  |  | 17.6 ± 2.1 |  |  |  | -28.7 ± 4 | S | >50 |  | 186 to 188 |  |  |  |  | second more potent replication inhibitor
CSc1ccc(-c2cc3ccccc3oc2=O)cc1 [Compound 11, 3-(4-Methylsulfanylphenyl)-2H-chromen-2-one] | 18.2 ± 0.2 |  | potent though unspecific anti-Tat activity | 77.5 ± 8.5 | 80.1 ± 5.6 | confirmed | fair inhibitory activity | 84.3 ± 3 | 81.6 ± 5.6 | U | >50 |  | 157 to 159 |  |  |  |  | most potent inhibitor of HIV replication
COc1ccc(-c2cc3ccccc3oc2=O)cc1 [Compound 10, 3-(4-Methoxyphenyl)-2H-chromen-2-one] | 73 ± 8.6 | 4-5 fold | potent though unspecific anti-Tat activity | 73.5 ± 6.7 | 66.6 ± 3.4 |  | fair inhibitory activity |  | 61.2 ± 2.4 | U |  |  | 141 to 143 |  |  |  |  | 
O=c1oc2cc(O)ccc2cc1-c1ccccc1 [Compound 16, 7-Hydroxy-3-phenyl-2H-chromen-2-one] | 81.4 ± 14 |  |  |  | 17.2 ± 0.5 |  | fair inhibitory activity |  | 59 ± 8.2 | S | >50 | specific inhibitors of the NF-κB function |  |  |  |  |  | 
